Test system: 898857-211-R-J1-PDC complex spheroids, growth % test/control
Assay: Anticancer human tumor 898857-211-R-J1-PDC patient-derived melanoma cell line growth inhibition [RAS]
Details: for IC50: curve of first compound; for viability, T/C: stronger effect = lower value
From the text: RAS pathway inhibitors in Combinations in Complex Spheroids
A high-throughput screen of multi-cell type tumor spheroids was designed to identify active combinations of RAS pathway inhibitors and targeted small molecules. Complex spheroids include a stromal component modeled by human endothelial cells (HUVEC) and fibroblasts modeled by human mesenchymal stem cells (MSCs). The concentration ranges selected for each drug and investigational agent were based upon clinically achievable concentrations if the clinical Cmax of the agent was known.
Compounds. The drugs and investigational agents: abemaciclib (NSC768073), cobimetinib (NSC768068), divarasib (GDC6063, NSC841802), docetaxel (NSC628503), GDC-1971 (RLY-1971, NSC841576), gemcitabine (NSC613327), inavolisib (NSC800729), ipatasertib (NSC767898), KB-0742 (NSC834161), MRTX-1133 (NSC836407), osimertinib (NSC779217), RMC-4630 (NSC839698), RMC-6236 (NSC851965), RMC-6291 (NSC852671), Ro-3306 (NSC812927), sapanisertib (NSC764658), SN-38 (NSC673596), staurosporine (NSC755774), SY5609 (NSC837396), and tovorafenib (DAY101, NSC766906), were obtained from the National Cancer Institute (NCI) Developmental Therapeutics Program Chemical Repository. The FDA-approved anticancer drug set is available from the NCI Developmental Therapeutics Program. […] The stock solutions were prepared in dimethyl sulfoxide (DMSO, Sigma-Aldrich, St. Louis, MO, cat. D2650) at 800-fold the tested concentration and stored at -70 degrees C prior to their use. All drugs and investigational agents were tested over a range starting from a high concentration at or near the clinical Cmax and decreasing in half-log increments. If the clinical Cmax for an agent had not been determined, the highest concentration tested was 10 microM.
Cell Culture. All cells were maintained in an incubator at 37 degrees C and 5% CO2 with 95% humidity. The PDC lines were cultured according to standard operating procedures established by the NCI PDMR. All PDCs were thawed and cultured in Matrigel-coated flasks prepared with a working solution of 1X Ham's F-12 nutrient mix, without supplementation (Invitrogen, Waltham, MA, cat. 11765054), 100 U/mL penicillin-streptomycin (Invitrogen, cat. 15140122), and 2.5% Matrigel (Corning Inc., Corning, NY, cat. 354248) for the first three passages. The 362531-283-R-J2-PDC and 782815-120-R-J1-PDC lines were cultured in 6C/Colon 1B media, which includes advanced DMEM/F-12 (Thermo Fisher Scientific, cat. 12634028), 10 mM HEPES (Thermo Fisher Scientific, cat. 15630080), 1X GlutaMAX supplement (Thermo Fisher Scientific, cat. 35050061), 0.1 mg/mL primocin (InvivoGen, San Diego, CA, cat. ant-pm-2), 10% defined fetal bovine serum, heat inactivated (HyClone Laboratories Inc., Logan, UT, cat. SH30070.03HI), 50% L-WRN conditioned media (ATCC, cat. CRL-3276), 1.25 mM N-Acetyl-L-cysteine (Sigma-Aldrich, cat. A9165), 10 mM nicotinamide (Sigma-Aldrich, cat. N0636), 1X B-27 supplement (Thermo Fisher Scientific, cat. 17504044), 1X N-2 supplement (Thermo Fisher Scientific, cat. 17502048), 50 ng/mL human EGF (Thermo Fisher Scientific, cat. PHG0311), and 10 microM Y-27632 dihydrochloride (Tocris Bioscience, cat. 1254). The K12877-001-R-J1-PDC line was cultured in 6I media, which includes all 6C/Colon 1B media plus 10 ng/mL human FGF-10 (PeproTech, cat. 100-26), 1 ng/mL human FGF-2 (PeproTech, cat. 100-18B), 1 µM prostaglandin E2 (Tocris Bioscience, cat. 2296), […] hydrocortisone (Sigma-Aldrich, cat. H4001), and […] bovine insulin (Sigma-Aldrich, cat. I6634). The K86415-001-R-J1-PDC line was cultured in 6D media, which includes all 6C/Colon 1B media components minus the L-WRN conditioned media. The 485176-168-R4-J1-PDC was cultured in PANC media, which includes all 6C/Colon 1B media plus 100 ng/mL human FGF-10 (PeproTech, cat. 100-26), 500 nM SB-431542 (Selleckchem, cat. S1067), and 10 nM gastrin (Tocris Bioscience, cat. 3006). […]

[1] = second compound 0.0316 µM, first compound 0.0316 µM
[2] = second compound 0.0316 µM, first compound 0.1 µM
[3] = second compound 0.0316 µM, first compound 0.316 µM
[4] = second compound 0.0316 µM, first compound 1 µM
[5] = second compound 0.0316 µM, first compound 3.16 µM
[6] = second compound 0.0316 µM, first compound 10 µM
[7] = second compound 0.1 µM, first compound 0.0316 µM
[8] = second compound 0.1 µM, first compound 0.1 µM
[9] = second compound 0.1 µM, first compound 0.316 µM
[10] = second compound 0.1 µM, first compound 1 µM
[11] = second compound 0.1 µM, first compound 3.16 µM
[12] = second compound 0.1 µM, first compound 10 µM
[13] = second compound 0.316 µM, first compound 0.0316 µM
[14] = second compound 0.316 µM, first compound 0.1 µM
[15] = second compound 0.316 µM, first compound 0.316 µM
[16] = second compound 0.316 µM, first compound 1 µM
[17] = second compound 0.316 µM, first compound 3.16 µM
[18] = second compound 0.316 µM, first compound 10 µM
[19] = second compound 1 µM, first compound 0.0316 µM
[20] = second compound 1 µM, first compound 0.1 µM
[21] = second compound 1 µM, first compound 0.316 µM
[22] = second compound 1 µM, first compound 1 µM
[23] = second compound 1 µM, first compound 3.16 µM
[24] = second compound 1 µM, first compound 10 µM
[25] = second compound 3.16 µM, first compound 0.0316 µM
[26] = second compound 3.16 µM, first compound 0.1 µM
[27] = second compound 3.16 µM, first compound 0.316 µM
[28] = second compound 3.16 µM, first compound 1 µM
[29] = second compound 3.16 µM, first compound 3.16 µM
[30] = second compound 3.16 µM, first compound 10 µM
[31] = second compound 10 µM, first compound 0.0316 µM
[32] = second compound 10 µM, first compound 0.1 µM
[33] = second compound 10 µM, first compound 0.316 µM
[34] = second compound 10 µM, first compound 1 µM
[35] = second compound 10 µM, first compound 3.16 µM
[36] = second compound 10 µM, first compound 10 µM
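Further: spheroids exposed to compound for seven days before readout.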
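Wherever viability, T/C is given: 100% = DMSO vehicle control wells.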

SMILES: CC(C)NCC(C(=O)N1CCN(c2ncnc3c2C(C)CC3O)CC1)c1ccc(Cl)cc1 (stereo unspecified) + C#Cc1c(F)ccc2cc(O)cc(-c3ncc4c(N5CC6CCC(C5)N6)nc(OCC56CCCN5CC(F)C6)nc4c3F)c12
- IC50 (second compound 0.0316 µM): > 10000 nM
- IC50 (second compound 0.1 µM): > 10000 nM
- IC50 (second compound 0.316 µM): > 10000 nM
- IC50 (second compound 1 µM): > 10000 nM
- IC50 (second compound 3.16 µM): > 10000 nM
- IC50 (second compound 10 µM): 132 nM
- viability, T/C [1]: 100%
- viability, T/C [2]: 89.4%
- viability, T/C [3]: 103%
- viability, T/C [4]: 80.8%
- viability, T/C [5]: 73.6%
- viability, T/C [6]: 67.6%
- viability, T/C [7]: 116%
- viability, T/C [8]: 104%
- viability, T/C [9]: 98.5%
- viability, T/C [10]: 88.2%
- viability, T/C [11]: 85.2%
- viability, T/C [12]: 61.4%
- viability, T/C [13]: 101%
- viability, T/C [14]: 103%
- viability, T/C [15]: 104%
- viability, T/C [16]: 83.4%
- viability, T/C [17]: 70.8%
- viability, T/C [18]: 55.2%
- viability, T/C [19]: 99.9%
- viability, T/C [20]: 95.8%
- viability, T/C [21]: 104%
- viability, T/C [22]: 92%
- viability, T/C [23]: 74.7%
- viability, T/C [24]: 61%
- viability, T/C [25]: 102%
- viability, T/C [26]: 95.9%
- viability, T/C [27]: 109%
- viability, T/C [28]: 92.7%
- viability, T/C [29]: 78.1%
- viability, T/C [30]: 52%
- viability, T/C [31]: 54.3%
- viability, T/C [32]: 59.4%
- viability, T/C [33]: 38.5%
- viability, T/C [34]: 33.8%
- viability, T/C [35]: 27.5%
- viability, T/C [36]: 8.24%

SMILES: CC(Nc1ccc2c(c1)OCCn1cc(N3C(=O)OCC3C(F)F)nc1-2)C(N)=O (stereo unspecified) + C#Cc1c(F)ccc2cc(O)cc(-c3ncc4c(N5CC6CCC(C5)N6)nc(OCC56CCCN5CC(F)C6)nc4c3F)c12
- IC50 (second compound 0.0316 µM): > 10000 nM
- IC50 (second compound 0.1 µM): > 10000 nM
- IC50 (second compound 0.316 µM): > 10000 nM
- IC50 (second compound 1 µM): > 10000 nM
- IC50 (second compound 3.16 µM): > 10000 nM
- IC50 (second compound 10 µM): 89.7 nM
- viability, T/C [1]: 96.9%
- viability, T/C [2]: 98.4%
- viability, T/C [3]: 98.3%
- viability, T/C [4]: 87.7%
- viability, T/C [5]: 97.8%
- viability, T/C [6]: 69.4%
- viability, T/C [7]: 99.9%
- viability, T/C [8]: 90%
- viability, T/C [9]: 99.2%
- viability, T/C [10]: 98.4%
- viability, T/C [11]: 91.6%
- viability, T/C [12]: 69.9%
- viability, T/C [13]: 106%
- viability, T/C [14]: 101%
- viability, T/C [15]: 92.5%
- viability, T/C [16]: 94.2%
- viability, T/C [17]: 87.3%
- viability, T/C [18]: 71.3%
- viability, T/C [19]: 108%
- viability, T/C [20]: 99.8%
- viability, T/C [21]: 104%
- viability, T/C [22]: 94.7%
- viability, T/C [23]: 83.4%
- viability, T/C [24]: 65.2%
- viability, T/C [25]: 98.1%
- viability, T/C [26]: 89.2%
- viability, T/C [27]: 94.3%
- viability, T/C [28]: 96.3%
- viability, T/C [29]: 82.8%
- viability, T/C [30]: 72.4%
- viability, T/C [31]: 59.6%
- viability, T/C [32]: 39.3%
- viability, T/C [33]: 47.1%
- viability, T/C [34]: 40.1%
- viability, T/C [35]: 32%
- viability, T/C [36]: 20.5%

SMILES: O=C(c1ccc(F)c(F)c1Nc1ccc(I)cc1F)N1CC(O)([C@@H]2CCCCN2)C1 + C#Cc1c(F)ccc2cc(O)cc(-c3ncc4c(N5CC6CCC(C5)N6)nc(OCC56CCCN5CC(F)C6)nc4c3F)c12
- IC50 (second compound 0.0316 µM): 3.56 nM
- IC50 (second compound 0.1 µM): < 3.16 nM
- IC50 (second compound 0.316 µM): < 3.16 nM
- IC50 (second compound 1 µM): 3.69 nM
- IC50 (second compound 3.16 µM): 5.18 nM
- IC50 (second compound 10 µM): < 3.16 nM
- viability, T/C (second compound 0.0316 µM, first compound 0.00316 µM): 52.6%
- viability, T/C (second compound 0.0316 µM, first compound 0.01 µM): 35.3%
- viability, T/C [1]: 26.1%
- viability, T/C [2]: 26.5%
- viability, T/C [3]: 17.6%
- viability, T/C [4]: 14.2%
- viability, T/C (second compound 0.1 µM, first compound 0.00316 µM): 44%
- viability, T/C (second compound 0.1 µM, first compound 0.01 µM): 36.1%
- viability, T/C [7]: 27.1%
- viability, T/C [8]: 20.7%
- viability, T/C [9]: 18.8%
- viability, T/C [10]: 15.3%
- viability, T/C (second compound 0.316 µM, first compound 0.00316 µM): 50%
- viability, T/C (second compound 0.316 µM, first compound 0.01 µM): 37.8%
- viability, T/C [13]: 29.6%
- viability, T/C [14]: 24.8%
- viability, T/C [15]: 16.7%
- viability, T/C [16]: 14.5%
- viability, T/C (second compound 1 µM, first compound 0.00316 µM): 53.5%
- viability, T/C (second compound 1 µM, first compound 0.01 µM): 30%
- viability, T/C [19]: 24.5%
- viability, T/C [20]: 20.6%
- viability, T/C [21]: 17.6%
- viability, T/C [22]: 15.3%
- viability, T/C (second compound 3.16 µM, first compound 0.00316 µM): 59.7%
- viability, T/C (second compound 3.16 µM, first compound 0.01 µM): 36.2%
- viability, T/C [25]: 26.7%
- viability, T/C [26]: 21.4%
- viability, T/C [27]: 19.3%
- viability, T/C [28]: 12.5%
- viability, T/C (second compound 10 µM, first compound 0.00316 µM): 17.5%
- viability, T/C (second compound 10 µM, first compound 0.01 µM): 14.3%
- viability, T/C [31]: 12.5%
- viability, T/C [32]: 9.58%
- viability, T/C [33]: 9.91%
- viability, T/C [34]: 5.99%
